Measurements published in US6391595B1, “Transferase and amylase, process for producing the enzymes, use thereof, and gene coding for the same” (Kirin Beer Kabushiki Kaisha, priority 1994, dated 2002).
Where two headings read alike, the source gives them in different places.

Key:
[1] = test system: debranching enzyme derived from the Sulfolobus solfataricus strain KM1; assay: Influence of activators and inhibitors on debranching enzyme activity; type: biochemical; settings: for Residual activity: Concentration 5 mM
[2] = test system: transferase derived from the Sulfolobus solfataricus strain KM1; assay: Influence of activators and inhibitors on glucosyltrehalose-producing activity; type: biochemical; settings: for Activating or inhibitory effect: added with the substrate
[3] = biological target: T1, amylase derived from the Sulfolobus solfataricus strain KM1 (Saccharolobus solfataricus, UniProt Q55088); assay: biochemical; type: biochemical; settings: for Activating or inhibitory effect: added with the substrate
T1 construct: endogenous in cells; host or cells: Sulfolobus solfataricus strain KM1 cells
T1 sequence (Q55088 1-559): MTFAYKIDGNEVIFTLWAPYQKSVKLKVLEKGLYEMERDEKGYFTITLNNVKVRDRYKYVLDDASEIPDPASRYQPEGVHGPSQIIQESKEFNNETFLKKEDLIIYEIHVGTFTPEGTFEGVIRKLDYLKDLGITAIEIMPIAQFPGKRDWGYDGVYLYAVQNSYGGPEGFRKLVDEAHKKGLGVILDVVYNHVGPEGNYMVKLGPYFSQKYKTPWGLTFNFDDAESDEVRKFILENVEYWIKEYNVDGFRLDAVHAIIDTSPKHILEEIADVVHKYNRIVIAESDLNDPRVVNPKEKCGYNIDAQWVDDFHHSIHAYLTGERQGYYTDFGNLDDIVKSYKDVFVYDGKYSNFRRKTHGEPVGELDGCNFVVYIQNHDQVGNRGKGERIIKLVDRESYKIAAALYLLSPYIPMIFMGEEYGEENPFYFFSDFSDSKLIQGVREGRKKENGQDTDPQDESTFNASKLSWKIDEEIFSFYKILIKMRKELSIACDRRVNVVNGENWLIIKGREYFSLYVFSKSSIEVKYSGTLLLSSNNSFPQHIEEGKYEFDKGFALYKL

[4] = biological target: T2, swine pancreatic α-amylase (Sus scrofa, UniProt P00690); assay: Hydrolysis of oligosaccharides by pancreatic α-amylase (comparative); type: biochemical; settings: 1 Unit/ml α-amylase, 10 mM substrate, pH 6.9, 20° C.; for Production rate of di- and trisaccharides: 1 Unit = 1 umol per hour
T2 construct: purchased Sigma Co. A-6255
T2 sequence (P00690 16-511): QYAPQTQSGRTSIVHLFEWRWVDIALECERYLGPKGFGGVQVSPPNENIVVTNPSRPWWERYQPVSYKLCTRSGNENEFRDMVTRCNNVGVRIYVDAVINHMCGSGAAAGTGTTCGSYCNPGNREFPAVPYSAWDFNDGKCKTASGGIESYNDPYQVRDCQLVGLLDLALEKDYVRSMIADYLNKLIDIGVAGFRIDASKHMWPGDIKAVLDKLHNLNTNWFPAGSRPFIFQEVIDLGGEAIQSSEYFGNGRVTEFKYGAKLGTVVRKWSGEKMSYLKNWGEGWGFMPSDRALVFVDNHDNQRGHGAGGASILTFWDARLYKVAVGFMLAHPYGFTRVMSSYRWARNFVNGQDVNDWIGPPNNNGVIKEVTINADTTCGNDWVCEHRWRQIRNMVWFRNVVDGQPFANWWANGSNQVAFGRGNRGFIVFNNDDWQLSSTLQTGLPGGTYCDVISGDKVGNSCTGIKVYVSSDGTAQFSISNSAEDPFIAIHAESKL
Experimental: Swine pancreatic α-amylase is known to hydrolyze maltooligosaccharide from the reducing end by two or three sugar units [“Denpun.Kanren Toushitsu Kouso Jikken-hou” (“Experimental methods in enzymes for starch and relating saccharides”), p 135, written by Michinori Nakamura and Keiji Kainuma, published by Gakkai-Shuppan-Sentah]. Upon this, a swine pancreatic α-amylase (manufactured by Sigma Co., A-6255) was analyzed the hydrolyzing properties and the hydrolysates as a comparative example for the novel amylase of the present invention. […] The activity of producing disaccharide and trisaccharide was employed as the index of the enzymatic activity, and the analysis was performed by the TSK-gel Amide-80 HPLC analyzing method described in Example II-1.
Incidentally, the enzymatic activity values in Table 17 were expressed with such a unit as 1 Unit equals the activity of liberating 1 umol of each oligosaccharide per hour.

[5] = biological target: T3, recombinant novel amylase (Saccharolobus solfataricus, UniProt Q55088); assay: Substrate specificity of the recombinant novel amylase (crude enzyme solution); settings: for Liberated oligosaccharide / Production rate of mono- and disaccharides: 35.2 Units/ml crude enzyme solution, 10 mM substrate (amylopectin and soluble starch 3.0%); for Production rate of mono- and disaccharides: 1 Unit = 1 μmol per hour
T3 sequence (Q55088 1-559): T1 sequence (Q55088 1-559)

[6] = biological target: T1, amylase derived from the Sulfolobus solfataricus strain KM1; assay: Substrate specificity of the purified amylase (hydrolyzing properties, TSK-gel Amide-80 HPLC); type: biochemical; settings: for Liberated oligosaccharide / Production rate of mono- and disaccharides: 25.0 Units/ml enzyme, 10 mM substrate (amylopectin and soluble starch 2.8%); for Production rate of mono- and disaccharides: 1 Unit = 1 μmol per hour
Experimental: The hydrolyzing properties were analyzed by allowing 25.0 Units/ml (in terms of the enzymatic activity when maltotriosyltrehalose is used as the substrate) of the present purified enzyme to act on the various 10 mM substrates (except amylopectin and soluble starch were used as 2.8% solutions) listed in Table 16 below, and the hydrolyzed products were also analyzed.
Incidentally, each enzymatic activity in Table 16 is expressed with such a unit as 1 Unit equals the activity of liberating 1 μmol of each of the monosaccharide and disaccharide per hour.

[7] = Concentration 5 mM, read-out: Residual activity

**Q.** With `[Cl-].[Cl-].[Co+2]` [CoCl2] as the compound, how does the Residual activity [1] read?
**A.** 87.2%

**Q.** What about the Residual activity ([2]; Concentration 5 mM) of the same compound?
**A.** 88.5%

**Q.** What about the Residual activity ([3]; Concentration 5 mM) of the same compound?
**A.** 97.1%

**Q.** For `OCC1OC(OC2OC(CO)C(OC3OC(CO)C(OC4OC(CO)C(O)C(O)C4O)C(O)C3O)C(O)C2O)C(O)C(O)C1O` [Maltosyltrehalose, α-D-maltotriosyl α-D-glucopyranoside], which Liberated oligosaccharide [4] is on record?
**A.** not decomposed

**Q.** What about the “Production rate of di- and trisaccharides” value [4] of the same compound?
**A.** 0 units/ml

**Q.** What about the Liberated oligosaccharide [5] of the same compound?
**A.** G2 + Trehalose

**Q.** What about the “Production rate of mono- and disaccharides” value [5] of the same compound?
**A.** 4.52 units/ml

**Q.** What about the Liberated oligosaccharide [6] of the same compound?
**A.** G2 + Trehalose

**Q.** What about the “Production rate of mono- and disaccharides” value [6] of the same compound?
**A.** 3.93 units/ml

**Q.** `O[C@H](CS)[C@H](O)CS` (racemic) [Dithiothreitol] was tested. Which Residual activity [1] did it give?
**A.** 106.0%

**Q.** And the Residual activity ([2]; Concentration 5 mM)?
**A.** 84.5%

**Q.** What about the remaining activity at 5000 µM [3, 7] of the same compound?
**A.** 116%

**Q.** Which results are given for `O=[N+]([O-])[O-].[Ag+]` [AgNO3]?
**A.** Residual activity ([2]; Concentration 5 mM): 121.0%; Residual activity ([3]; Concentration 5 mM): 105.7%

**Q.** Which Residual activity [1] does the source give for `[Cl-].[Cl-].[Mg+2]` [MgCl2] here?
**A.** 82.9%

**Q.** And the Residual activity ([2]; Concentration 5 mM)?
**A.** 111.3%

**Q.** What about the Residual activity ([3]; Concentration 5 mM) of the same compound?
**A.** 93.5%

**Q.** How did the Residual activity [1] turn out when `[Cl][Fe]([Cl])[Cl]` [FeCl3] was run?
**A.** 39.0%

**Q.** What about the Residual activity ([2]; Concentration 5 mM) of the same compound?
**A.** 90.0%

**Q.** What about the Residual activity ([3]; Concentration 5 mM) of the same compound?
**A.** 38.0%

**Q.** What does the source list for `OCC1OC(OC2OC(CO)C(OC3OC(CO)C(OC4OC(CO)C(OC5OC(CO)C(O)C(O)C5O)C(O)C4O)C(O)C3O)C(O)C2O)C(O)C(O)C1O` [Maltotriosyltrehalose, α-D-maltotetraosyl α-D-glucopyranoside]?
**A.** Liberated oligosaccharide [4]: G2 + Glucosyltrehalose; Production rate of di- and trisaccharides [4]: 0.03 units/ml; Liberated oligosaccharide [5]: G3 + Trehalose; Production rate of mono- and disaccharides [5]: 35.21 units/ml; Liberated oligosaccharide [6]: G3 + Trehalose; Production rate of mono- and disaccharides [6]: 25.0 units/ml

**Q.** With `O=S(=O)([O-])[O-].[Fe+2]` [FeSO4] as the compound, how does the Residual activity [1] read?
**A.** 74.1%

**Q.** And the Residual activity ([2]; Concentration 5 mM)?
**A.** 108.3%

**Q.** And the Residual activity ([3]; Concentration 5 mM)?
**A.** 73.5%

**Q.** Which results are given for `OC[C@H]1O[C@H](O[C@H]2O[C@H](CO)[C@@H](O[C@H]3O[C@H](CO)[C@@H](O[C@H]4O[C@H](CO)[C@@H](O[C@H]5O[C@H](CO)[C@@H](O[C@H]6O[C@H](CO)[C@@H](O)[C@H](O)[C@H]6O)[C@H](O)[C@H]5O)[C@H](O)[C@H]4O)[C@H](O)[C@H]3O)[C@H](O)[C@H]2O)[C@H](O)[C@@H](O)[C@@H]1O` [Maltotetraosyltrehalose]?
**A.** Liberated oligosaccharide [4]: G3 + Glucosyltrehalose; Production rate of di- and trisaccharides [4]: 2.57 units/ml; Liberated oligosaccharide [6]: G4 + Trehalose; Production rate of mono- and disaccharides [6]: 27.3 units/ml

**Q.** For `OC[C@H]1O[C@H](O[C@H]2O[C@H](CO)[C@@H](O)[C@H](O)[C@H]2O)[C@H](O)[C@@H](O)[C@@H]1O` [α,α-Trehalose, α,α-trehalose], which “Action of the enzyme on the substrate” value [5] is on record?
**A.** did not act

**Q.** And the Liberated oligosaccharide [5]?
**A.** not decomposed

**Q.** What about the “Production rate of mono- and disaccharides” value [5] of the same compound?
**A.** 0 units/ml

**Q.** What about the Residual activity ([2]; Concentration 0.5 mM) of the same compound?
**A.** 107.8%

**Q.** And the remaining activity at 500 µM ([3]; Concentration 0.5 mM, read-out: Residual activity)?
**A.** 98.2%

**Q.** And the “Action of the enzyme on the substrate” value [6]?
**A.** did not act

**Q.** What about the Liberated oligosaccharide [6] of the same compound?
**A.** not decomposed

**Q.** What about the “Production rate of mono- and disaccharides” value [6] of the same compound?
**A.** 0 units/ml

**Q.** Which Residual activity [1] does the source give for `[Cl][Mn][Cl]` [MnCl2] here?
**A.** 91.2%

**Q.** What about the Residual activity ([2]; Concentration 5 mM) of the same compound?
**A.** 74.2%

**Q.** And the Residual activity ([3]; Concentration 5 mM)?
**A.** 101.8%

**Q.** What does the source list for `OC[C@H]1O[C@H](OC[C@H]2OC(O)[C@H](O)[C@@H](O)[C@@H]2O)[C@H](O)[C@@H](O)[C@@H]1O` (stereo partly drawn) [Isomaltose]?
**A.** Action of the enzyme on the substrate [5]: did not act; Liberated oligosaccharide [5]: not decomposed; Production rate of mono- and disaccharides [5]: 0 units/ml; Action of the enzyme on the substrate [6]: did not act; Liberated oligosaccharide [6]: not decomposed; Production rate of mono- and disaccharides [6]: 0 units/ml

**Q.** With `OC[C@H]1O[C@H](O[C@H]2O[C@H](CO)[C@@H](O[C@H]3O[C@H](CO)[C@@H](O[C@H]4O[C@H](CO)[C@@H](O[C@H]5O[C@H](CO)[C@@H](O[C@H]6O[C@H](CO)[C@@H](O[C@H]7O[C@H](CO)[C@@H](O)[C@H](O)[C@H]7O)[C@H](O)[C@H]6O)[C@H](O)[C@H]5O)[C@H](O)[C@H]4O)[C@H](O)[C@H]3O)[C@H](O)[C@H]2O)[C@H](O)[C@@H](O)[C@@H]1O` [Maltopentaosyltrehalose] as the compound, how does the Liberated oligosaccharide [4] read?
**A.** G3 + Maltosyltrehalose

**Q.** And the “Production rate of di- and trisaccharides” value [4]?
**A.** 4.36 units/ml

**Q.** And the Liberated oligosaccharide [6]?
**A.** G5 + Trehalose

**Q.** What about the “Production rate of mono- and disaccharides” value [6] of the same compound?
**A.** 25.5 units/ml

**Q.** `[Ca+2].[Cl-].[Cl-]` [CaCl2] was tested. Which Residual activity [1] did it give?
**A.** 105.7%

**Q.** What about the “Activating or inhibitory effect” value ([1]; added with the substrate) of the same compound?
**A.** would not be activated

**Q.** And the Residual activity ([2]; Concentration 5 mM)?
**A.** 93.6%

**Q.** What about the “Activating or inhibitory effect” value [2] of the same compound?
**A.** would not be activated

**Q.** What about the Residual activity ([3]; Concentration 5 mM) of the same compound?
**A.** 97.1%

**Q.** And the “Activating or inhibitory effect” value [3]?
**A.** would not be activated

**Q.** Which results are given for `O=C(O)CN(CCN(CC(=O)O)CC(=O)O)CC(=O)O` [EDTA]?
**A.** Residual activity [2]: 96.8%; Residual activity [3]: 106.3%

**Q.** Which results are given for `CCCCCCCCCCCCOS(=O)(=O)[O-].[Na+]` [SDS, sodium dodecyl sulfate]?
**A.** Residual activity ([2]; Concentration 5 mM): 0.0%; Activating or inhibitory effect [2]: inhibitory effects; remaining activity at 5000 µM [3, 7]: 0%; Activating or inhibitory effect [3]: inhibitory effects

**Q.** Which Residual activity [1] does the source give for `OCCS` [2-Mercaptoethanol] here?
**A.** 104.1%

**Q.** And the Residual activity ([2]; Concentration 5 mM)?
**A.** 100.3%

**Q.** And the Residual activity ([3]; Concentration 5 mM)?
**A.** 141.7%

**Q.** Which results are given for `OCC1OC(OC2OC(CO)C(OC3OC(CO)C(O)C(O)C3O)C(O)C2O)C(O)C(O)C1O` [Glucosyltrehalose, α-D-maltosyl α-D-glucopyranoside]?
**A.** Liberated oligosaccharide [4]: not decomposed; Production rate of di- and trisaccharides [4]: 0 units/ml; Liberated oligosaccharide [5]: Glucose + Trehalose; Production rate of mono- and disaccharides [5]: 0.01 units/ml; Liberated oligosaccharide [6]: Glucose + Trehalose; Production rate of mono- and disaccharides [6]: 0.04 units/ml
